Assays:
[1] = system: Plasmodium falciparum; assay: NOVARTIS: Inhibition of Plasmodium falciparum 3D7 (drug-susceptible) proliferation in erythrocyte-based infection assay; type: functional, organism-based; details: Plasmodium falciparum, 3D7
[2] = system: Plasmodium falciparum; assay: NOVARTIS: Inhibition of Plasmodium falciparum W2 (drug-resistant) proliferation in erythrocyte-based infection assay; type: functional, organism-based; details: Plasmodium falciparum, W2; read-out: EC50
[3] = NOVARTIS: Cytotoxicity against human hepatocellular carcinoma cell line (Huh7); type: toxicity, cell-based, Huh-7; details: Huh7 cells (hepatocellular carcinoma cell line)

Row | SMILES | EC50 [1] [nM] | EC50 [2] [nM] | CC50 [3] [nM]
1 | CC1CN(C2CC(=O)N(c3ccccc3)C2=O)CC(C)O1 (configuration not stated) | 873 | > 195 | > 10000
2 | CC1=C(C(=O)OC2CCCCC2)C(c2cccc([N+](=O)[O-])c2)C2=C(CCCC2=O)N1 (configuration not stated) | 1640 | 1330 | 68400
3 | CC(=O)c1cccc(CN2CCC(C(=O)Nc3ccc(-n4nc(C)cc4C)cc3)CC2)c1 | 2160 | 1950 | > 100000
4 | CCN1CCN(c2cc(C)c3cc(NC(=O)C=Cc4cccc(Cl)c4)ccc3n2)CC1 | 824 | 1260 | 61400
5 | CC(=O)N(C1=C(N(C)C)C(=O)c2ccccc2C1=O)c1cccc(Cl)c1 | 27.3 | 64.9 | 3180
6 | CSc1cccc([C@@H]2C[C@H]3CN(c4ccccc4)C(=O)[C@]34CCCN24)c1 | 1210 | 480 | 23500
7 | CCCCCc1ccc(C(=O)N(C)CCCNc2ccnc3cc(Cl)ccc23)cc1 | 250 | 310 | 15100
8 | CC(C)c1ccc(C=CC(=O)NCc2ccco2)cc1 | 1480 | 2000 | > 100000
9 | O=c1c2[nH]c3ccccc3c2ncn1Cc1ccc2c(c1)OCO2 | > 12500 | 2000 | > 100000
10 | Cc1nc(-c2ccc[n+](C)c2)sc1C(=O)/C=C/c1ccc(Cl)cc1 | 283 | 200 | > 10000
11 | CN(CCCNc1ccnc2cc(Cl)ccc12)S(=O)(=O)c1cc(Cl)ccc1Cl | 398 | 251 | > 12200
12 | Cc1ccc(OCC(=O)Nc2cccc(-c3nc4ncccc4o3)c2)cc1C | 1900 | 2050 | > 100000
13 | COc1ccc(CN2CCN(C(=O)c3cccnc3)CC2)cc1OC | 349 | 2010 | > 100000
14 | COc1cc(-c2nc(-c3ccccc3)c(-c3cccc(C(F)(F)F)c3)[nH]2)cc(OC)c1O | 622 | 902 | 44900
15 | FC(F)(F)c1ccc(-c2nc(C34CC5CC(CC(C5)C3)C4)cs2)cc1 | 1570 | 200 | > 10000
16 | CCN(CC)CCCNC(=S)N(CCN(C)C)Cc1cc2cc(C)cc(C)c2[nH]c1=O | 2420 | 2000 | > 100000
17 | Cc1cccc(NC(=O)c2ccc(N3CC4CC(C3)c3cccc(=O)n3C4)c(NC(=O)Cc3c(F)cccc3Cl)c2)n1 (configuration not stated) | > 1450 | 197 | > 10000

Row | SMILES | EC50 [1] [nM] | EC50 [2] [nM] | CC50 [3] [nM]
18 | CCC(COC)NC(=O)c1cn(C2CCCCC2)cc(C(=O)NC(C)(C)C)c1=O (configuration not stated) | 2900 | 1980 | > 100000
19 | O=C(O)CC(c1ccc2c(c1)OCO2)N1CCS(=O)(=O)CC1 (configuration not stated) | > 1250 | > 196 | > 10000
20 | O=C(Cc1cccs1)N1CCN(c2ccccn2)CC1 | 3950 | 1930 | > 100000
21 | O=C(Nc1ccc(-c2nc3cc(NC(=O)c4cccs4)ccc3[nH]2)cc1)c1cccs1 | 1550 | 2010 | > 100000
22 | O=C(CSc1ccc(Cl)cc1)NN=C1C(=O)Nc2ccccc21 | > 12500 | > 1990 | > 100000
23 | C=C[C@H]1CN2CC[C@H]1C[C@@H]2[C@@H](OC(=O)C(C)C)c1ccnc2ccccc12 | 318 | 199 | > 10000
24 | CCOc1ccc(CCN2C(=S)N(c3cccc(C(F)(F)F)c3)C(=O)C2CC(=O)Nc2ccc(C(=O)OC)cc2)cc1OCC (configuration not stated) | 1740 | 580 | 28500
25 | CCOC(=O)CCCSc1nc(-c2cccs2)cc(C(F)(F)F)c1C#N | 352 | 198 | > 10000
26 | COc1cc(NCCCC(C)Nc2ccnc3cc4ccccc4cc23)c2ncccc2c1 (configuration not stated) | 83.5 | 49.9 | 2470
27 | CCCn1nc(NS(C)(=O)=O)c2cc3cccc(C)c3nc21 | > 9100 | 2020 | > 100000
28 | CNC1CC2OC(C)(C1OC)n1c3ccccc3c3c4c(c5c6ccccc6n2c5c31)C(=O)NC4O (configuration not stated) | 190 | > 195 | […]
29 | Cc1ncc([N+](=O)[O-])n1CCOC(=O)c1c(NC(=O)c2ccccc2)sc2c1CCCC2 | 2600 | 2000 | > 100000
30 | Cc1ccc(C)n1-c1ccc(C(=O)N2CCC(C)CC2)cc1 | 5120 | 2040 | > 100000
31 | O=C1NC(=S)NC1=Cc1cccc(Oc2ccccc2)c1 | > 6890 | 1940 | > 100000
32 | CCOc1ccc2nc3cc(NCc4ccco4)ccc3c(N)c2c1 | 846 | 757 | 37900
33 | CCOC(=O)c1cc(-c2ccccc2)n(CCC(=O)Nc2ccccc2N2CCN(C)CC2)c1C | 794 | 336 | 17300
34 | CCCCNC(=O)C(CC)Sc1nnc(-c2ccc(C)cc2)c(-c2ccc(C)cc2)n1 (configuration not stated) | 471 | 2050 | > 100000
